Measured values reported in ChEMBL document CHEMBL4251716, “Miuramides A and B, Trisoxazole Macrolides from a Mycale sp. Marine Sponge That Induce a Protrusion Phenotype in Cultured Mammalian Cells” (J Nat Prod, 2018).
Calls of active or inactive are those of the source. The calls are words filed in the database; no cut-off is given here.

Experiments:
Type in all cases: functional, cell-based
3Y1 cell line [1] = assay: Induction of morphological changes in rat 3Y1 cells assessed as protrusions in cell membrane at 2.7 uM measured after 5 mins to 48 hrs by IncuCyte live cell imaging method
3Y1 cell line [2] = assay: Cytotoxicity against rat 3Y1 cells after 72 hrs by MTT assay; settings: 3Y1, 72 h
3Y1 cell line [3] = assay: Induction of morphological changes in rat 3Y1 cells assessed as protrusions in cell membrane at 41 uM measured after 5 mins to 48 hrs by IncuCyte live cell imaging method
3Y1 cell line [4] = assay: Induction of morphological changes in rat 3Y1 cells assessed as protrusions in cell membrane at 4.2 uM measured after 5 mins by IncuCyte live cell imaging method
3Y1 cell line [5] = assay: Induction of morphological changes in rat 3Y1 cells assessed as protrusions in cell membrane at 0.05 uM measured after 5 mins to 48 hrs by IncuCyte live cell imaging method
3Y1 cell line [6] = assay: Induction of morphological changes in rat 3Y1 cells assessed as protrusions in cell membrane at 1.9 uM measured after 5 mins to 48 hrs by IncuCyte live cell imaging method

COC[C@@H](OC)C(=O)O[C@H](CC[C@H](C)[C@H](C[C@@H]1OC(=O)C[C@@H](O)C/C=C/C(=O)[C@H](C)[C@H](OC)c2coc(n2)-c2coc(n2)-c2coc(n2)/C=C/C[C@H](OC)[C@H]1C)OC)[C@H](C)[C@H](OC(C)=O)[C@H](C)/C=C/N(C)C=O
Activity (3Y1 cell line [1]): Active

CO[C@H]([C@H](C)/C=C/N(C)C=O)[C@@H](C)C(=O)CC[C@H](C)[C@H](C[C@@H]1OC(=O)C[C@@H](O)C/C=C/C(=O)[C@H](C)[C@H](OC)c2coc(n2)-c2coc(n2)-c2coc(n2)/C=C/C[C@H](OC)[C@H]1C)OC
IC50 (3Y1 cell line [2]): 7 nM

C=C1[C@@H](C)[C@H]2[C@H](Cc3ccccc3)NC(=O)[C@]23OC(=O)/C=C/[C@@H](O)CCC[C@@H](C)C/C=C/[C@H]3[C@@H]1O
Activity (3Y1 cell line [3]): Active

CO[C@@H]([C@@H](C)[C@@H](CC[C@H](C)[C@H](C[C@@H]1OC(=O)C[C@@H](O)C/C=C/C(=O)[C@H](C)[C@H](OC)c2coc(n2)-c2coc(n2)-c2coc(n2)/C=C/C[C@H](OC)[C@H]1C)OC)OC(=O)[C@@H](C)OC)[C@H](C)/C=C/N(C)C=O
Activity (3Y1 cell line [4]): Active | IC50 (3Y1 cell line [2]): 7 nM

CO[C@H]1C[C@H](CC[C@H](C)[C@H](O)[C@H](C)[C@H]2OC(=O)/C(C)=C/C[C@H](O)C[C@@H]3C=CC[C@@H](C[C@H](OC)[C@@H](C)[C@@H](O)C[C@@H](O)[C@H](C)[C@@H]([C@@H](C)[C@@H](O)[C@@H](C)CC[C@H]4C[C@H](OC)C[C@H](C)O4)OC(=O)/C(C)=C/C[C@H](O)C[C@@H]4C=CC[C@@H](C[C@H](OC)[C@@H](C)[C@@H](O)C[C@@H](O)[C@@H]2C)O4)O3)O[C@@H](C)C1
Activity (3Y1 cell line [5]): Active

C/C1=C/C(=O)O[C@@H]2C[C@@H](CC[C@H](C)/C=C\C=C\CC1)O[C@@](O)([C@@H]1CSC(=O)N1)C2
Activity (3Y1 cell line [6]): Active
